We go through 15 compounds from US20170049777A1, “COMPOSITIONS, METHODS AND USES FOR THE TREATMENT OF DIABETIC NEUROPATHIES” (Pharnext, priority 2014, published 2017).

Test [1] relates to DRG explants from STZ rats. The test can be described thus: Neurite outgrowth from dorsal root ganglia explants from STZ rats. The class given is cell-based, rat.
The subject of test [2] is sensory neurons and Schwann cells co-culture. Put plainly: Myelination in co-culture of sensory neurons and Schwann cells under high glucose (MBP expression). Type of test: cell-based, rat. Also on record: key: +: significant improvement in length of myelinated axons when compared to non-treated conditions as assessed by MBP expression. To be noted: 45 mmol/L glucose, 50 μg/mL ascorbic acid, MBP staining, 5, 9, 10, 11 and 13 days. The procedure: A model of co-culture was used as an in vitro model of diabetes. This model of myelination consists in co-culturing sensory neurons and Schwann cells from Wistar rats dissociated dorsal root ganglia (DRG).
The aim of this study is to assess the effect of tested compounds and compound combinations on myelination process under high glucose conditions mimicking diabetes. The effect of the tested compounds on myelination, either in high glucose concentration or not, is assessed by evaluating Myelin Basic Protein (MBP) expression in presence of ascorbic acid.
Fifteen days gestation pregnant female rats are killed by cervical dislocation. The embryos are removed from the uterus and are at similar foetal stage of development.
Rat DRG are cultured as previously described by Cosgaya et al. and Rangaraju et al..
Each embryo is dispatched on numerating petri dish (35 mm of diameter). DRG of each embryo is collected, placed in ice-cold medium of Leibovitz (L15, Invitrogen). At the end of the dissection, DRG of TGM are pooled and dissociated by trypsinization (trypsin EDTA, 0.05%; Invitrogen) for 20 min at 37° C. The reaction is stopped by addition of DMEM containing 10% of foetal bovine serum (FBS) in the presence of DNAase I (Roche). The suspension is triturated with a 10 mL pipette. Cells are then centrifuged at 350×g for 10 min at room temperature. The pellet of dissociated cells is resuspended in neurobasal medium (Invitrogen) containing 2% of B27 (Invitrogen), 1% of penicillin-streptomycin (Invitrogen), 1% de L glutamine and 50 ng/mL NGF (Sigma). This medium is the neuronal medium. Viable cells are counted in a Neubauer cytometer using the trypan blue exclusion test (Sigma) and seeded on the basis of 10 000 cells per well in 96 well-plates (Greiner) treated with poly-L-lysine. The plates are maintained at 37° C. in a humidified incubator, in an atmosphere of air (95%)-CO2 (5%). Half of the standard neuronal culture medium is changed every other day. The cultures are maintained in standard neurobasal medium for 7 days to allow Schwann cells to populate the sensory neuron neurites. On day 7, the cultures are fed with standard neuronal medium supplemented or not with 50 μg/mL ascorbic acid in order to initiate basal lamina formation and myelination.
On Day 7, the Following Tested Compounds (Alone or in Combination) Listed in Table 5 are added in the medium with 50 μg/mL ascorbic acid. Basal glucose in culture medium is 25 mmol/L, which is necessary for DRG neuron survival. To produce a hyperglycemic insult, 20 mmol/L additional glucose (total 45 mmol/L glucose) is added to the media for the period specified.
The tested compounds are incubated for 5 different times: 5, 9, 10, 11 and 13 days.
Three separate and independent cultures of DRG are done. These conditions are assessed in presence of ascorbic acid, 6 wells per condition. The solution ready to use of all tested compounds are extemporaneously prepared from a stock solution, stored at −20° C. This solution is prepared once a week. Half of the standard neuronal medium supplemented with tested compounds, ascorbic acid (each at the concentration 1×) and glucose are changed every other day.
After 5, 9, 10, 11 and 13 days of incubation, cells are fixed by a cold solution of ethanol (95%) and acetic acid (5%) for 10 min. The cells are permeabilized and blocked with PBS containing 0.1% saponin and 10% goat serum for 15 min. Then, the cells are incubated with a specific marker of myelin: polyclonal antibody anti-myelin basic protein (MBP) antibody (Sigma 118K0431).
Nuclei of neurons are labelled by a fluorescent marker (Hoechst solution, SIGMA ref B1155).
Per well, 20 pictures are taken using InCell Analyzer™ 1000 (GE Healthcare) with 20× magnification. All images are taken in the same conditions. Analysis of total length of myelinated axons was automatically done (length and area around axons) using
Developer software (GE Healthcare). All values will be expressed as mean+/−s.e.mean. […]

Test [3] has as its system rat cortical neurons. Put plainly: Neurite network length of rat cortical primary neurons under high glucose. Type of test: cell-based. To be noted: 45 mmol/L glucose, 24 hours, MAP-2 staining. How it is done: Rat cortical neurons are cultured as described by Singer et al.. Briefly, pregnant female rats of 15 days gestation are killed by cervical dislocation (rats Wistar) and the foetuses are removed from the uterus. The cortex is then removed and placed in ice-cold medium of Leibovitz (L15) containing 2% of Penicillin 10.000 U/mL and Streptomycin 10 mg/mL and 1% of bovine serum albumin (BSA). Cortices are dissociated by trypsin for 20 min at 37° C. (0.05%). The reaction is stopped by the addition of Dulbecco's modified Eagle's medium (DMEM) containing DNasel grade II and 10% of foetal calf serum (FCS). Cells are then mechanically dissociated by 3 serial passages through a 10 mL pipette and centrifuged at 515×g for 10 min at +4° C. The supernatant is discarded and the pellet of cells is re-suspended in a defined culture medium consisting of Neurobasal supplemented with B27 (2%), L-glutamine (0.2 mM), 2% of PS solution and 10 ng/mL of BDNF. Viable cells are counted in a Neubauer cytometer using the trypan blue exclusion test. The cells are seeded at a density of 30 000 cells/well in 96 well-plates (wells were pre-coated with poly-L-lysine (10 μg/mL)) and were cultured at +37° C. in a humidified air (95%)/CO2 (5%) atmosphere.
After 10 days of culture, cells are incubated with drugs and their combinations. After 1 hour, medium glucose concentration is raised to 45 mmol/L glucose in defined medium without BDNF but together with tested compound. Cortical neurons are so cultured for 24 hours. BDNF (10 ng/mL) is used as a positive (neuroprotective) control. Three independent cultures were performed per condition, 6 wells per condition.
After 24 hours of culture in high glucose conditions, the supernatant is taken off and the cortical neurons are fixed by a cold solution of ethanol (95%) and acetic acid (5%) for 5 min. After permeabilization with 0.1% of saponin, cells are blocked for 2 hours with PBS containing 1% foetal calf serum. Then, cells are incubated with monoclonal antibody anti microtubule-associated-protein 2 (MAP-2; Sigma). This antibody stains specifically cell bodies and neurites of neurons. […] Nuclei of neurons are labelled by a fluorescent marker (Hoechst solution, Sigma).
Per well, 10 pictures are taken using InCell Analyzer™ 1000 (GE Healthcare) with 20× magnification. All pictures are taken in the same conditions. Analysis of the neurite network is done using Developer software (GE Healthcare) in order to assess the total length of neurite network.

Where [4] appears, read: spinal cord explants from diabetic rats cultured 24-48-72 hours with compound.

Read-outs that look alike come from different tables or passages of the source.

For `CC(C(O)c1ccc(O)cc1)N1CCC(Cc2ccccc2)CC1` (stereo not drawn) [ifenprodil], in test [1], the “protecting DRG from apoptosis and/or improving neurite outgrowth” value (“protecting DRG” for short) was “particularly efficient”. Also, in test [1] (setting [4]), the “Protection of neurite network, DRG explants from STZ rats” value (shortened to “Protection … from STZ rats”) is given as “+”. Further, the Myelinated axon length entry in test [2] is on record as “+”. Besides, in test [3], the “Protection of neurite network, rat cortical primary cell culture” value is listed as “+”.
For `C[C@@H]1CC(=O)NN=C1c1ccc(NN=C(C#N)C#N)cc1` [levosimendan], the “protecting DRG” value in test [1] is on record as “particularly efficient”. In test [1] (setting [4]), the “Protection … from STZ rats” value was “+”. Moreover, the Myelinated axon length entry in test [2] is recorded as “+”. The “Protection of neurite network, rat cortical primary cell culture” value in test [3] is given as “+”.
In the case of `Cc1cccc(Nc2ccncc2S(=O)(=O)NC(=O)NC(C)C)c1` [torasemide], the “protecting DRG” value in test [1] was “particularly efficient”. The “Protection … from STZ rats” value in test [1] (setting [4]) is on record as “+”. For the same compound, in test [2], the Myelinated axon length result was “+”. In test [3], the “Protection of neurite network, rat cortical primary cell culture” value is “+”.
With `CCN(CC)CCOCCOC(=O)C1(c2ccccc2)CCCC1` [carbetapentane], the “protecting DRG” value in test [1] is recorded as “particularly efficient”. The “Protection … from STZ rats” value in test [1] (setting [4]) was “+”. Besides, in test [2], the Myelinated axon length entry is recorded as “+”. The “Protection of neurite network, rat cortical primary cell culture” value in test [3] is reported as “+”.
`Cc1cccc(C)c1OCC(C)N` (stereo not drawn) [mexiletine]: the “protecting DRG” value in test [1] is “particularly efficient”. Further, the “Protection … from STZ rats” value in test [1] (setting [4]) is on record as “+”. The Myelinated axon length result in test [2] is on record as “+”. In test [3], the “Protection of neurite network, rat cortical primary cell culture” value was “+”.
As for `C1COC(NC(C2CC2)C2CC2)=N1` [rilmenidine], the “protecting DRG” value in test [1] is given as “particularly efficient”. For the same compound, the “Protection … from STZ rats” value in test [1] (setting [4]) is on record as “+”. Besides, the Myelinated axon length result in test [2] is given as “+”. For the same compound, the “Protection of neurite network, rat cortical primary cell culture” value in test [3] is reported as “+”.
For the compound `CC(=O)NCCCS(=O)(=O)O` [acamprosate], the “protecting DRG” value in test [1] was “particularly efficient”. For the same compound, in test [1] (setting [4]), the “Protection … from STZ rats” value was “+”. The Myelinated axon length result in test [2] was “+”. The “Protection of neurite network, rat cortical primary cell culture” value in test [3] is reported as “+”.
Consider `Nc1nc(N)c2nc(-c3ccccc3)c(N)nc2n1` [triamterene], for which the “protecting DRG” value in test [1] is listed as “particularly efficient”. Moreover, in test [1] (setting [4]), the “Protection … from STZ rats” value was “+”. Further, the Myelinated axon length entry in test [2] is recorded as “+”. The “Protection of neurite network, rat cortical primary cell culture” value in test [3] is “+”.
On to `C[C@@H](NCCCc1cccc(C(F)(F)F)c1)c1cccc2ccccc12` [cinacalcet], for which the “protecting DRG” value in test [1] is “particularly efficient”. Besides, the “Protection … from STZ rats” value in test [1] (setting [4]) is listed as “+”. The Myelinated axon length result in test [2] is reported as “+”. Also, the “Protection of neurite network, rat cortical primary cell culture” value in test [3] was “+”.
As for `CCN(CC)C(=O)N1CCN(C)CC1` [diethylcarbamazine], the “protecting DRG” value in test [1] is reported as “particularly efficient”. Besides, in test [1] (setting [4]), the “Protection … from STZ rats” value is reported as “+”. Further, in test [2], the Myelinated axon length result is recorded as “+”. Further, in test [3], the “Protection of neurite network, rat cortical primary cell culture” value is “+”.
`CN(C)CC[C@@H](c1ccc(Br)cc1)c1ccccn1` [dexbrompheniramine]: the “protecting DRG” value in test [1] is listed as “particularly efficient”. Further, in test [1] (setting [4]), the “Protection … from STZ rats” value is “+”. Also, in test [2], the Myelinated axon length result was “+”. In addition, the “Protection of neurite network, rat cortical primary cell culture” value in test [3] is given as “+”.
As to `NCC(CC(=O)O)c1ccc(Cl)cc1` (stereo not drawn) [baclofen], in test [1], the “Protection … from STZ rats” value is listed as “+” and the “protecting DRG” value is on record as “particularly efficient”. The Myelinated axon length result in test [2] is “+”. In test [3], the “Protection of neurite network, rat cortical primary cell culture” value is on record as “+”.
On to `Cc1ccc(C(=O)C(C)CN2CCCCC2)cc1` (stereo not drawn) [tolperisone], for which the “protecting DRG” value in test [1] is given as “particularly efficient”. Also, the “Protection … from STZ rats” value in test [1] (setting [4]) was “+”. For the same compound, the Myelinated axon length result in test [2] is “+”. Also, the “Protection of neurite network, rat cortical primary cell culture” value in test [3] was “+”.
Consider `CN/C(=N/CCSCc1nc[nH]c1C)NC#N` [cimetidine], for which the “protecting DRG” value in test [1] is on record as “particularly efficient”. Moreover, the “Protection … from STZ rats” value in test [1] (setting [4]) is given as “+”. Besides, in test [2], the Myelinated axon length result is on record as “+”. For the same compound, in test [3], the “Protection of neurite network, rat cortical primary cell culture” value was “+”.
For `CO[C@]12C[C@@H](COC(=O)c3cncc(Br)c3)CN(C)[C@@H]1Cc1cn(C)c3cccc2c13` [nicergoline], the “protecting DRG” value in test [1] is listed as “particularly efficient”. Also, in test [1] (setting [4]), the “Protection … from STZ rats” value is on record as “+”. Besides, the Myelinated axon length entry in test [2] is recorded as “+”. In addition, the “Protection of neurite network, rat cortical primary cell culture” value in test [3] is recorded as “+”.
